Assays:
[1] = tested on: Felis catus; experiment: Effect of intraperitoneal infusion on systolic pressure in Anesthetized cats at a dose of 200 mg/kg at 0 min; type: functional
[2] = tested on: Felis catus; experiment: Effect of intraperitoneal infusion on systolic pressure in Anesthetized cats at a dose of 200 mg/kg at 150 min; type: functional
[3] = organism: Cavia porcellus; experiment: Chronotropic activity on left and right guinea pig artia (beats/min), at 60 min; type: functional
[4] = tested on: Felis catus; experiment: Effect of intraperitoneal infusion on respiration frequency in Anesthetized cats at a dose of 200 mg/kg at 90 min; type: functional
[5] = tested on: Felis catus; experiment: Effect of intravenous infusion on systolic pressure in Anesthetized cats at a dose of 0 mg/kg at 0 min; type: functional
[6] = tested on: Felis catus; experiment: Effect of intraperitoneal infusion of compound on cardiac frequency in Anesthetized cats at a dose of 200 mg/kg at 15 min; type: functional, Heart
[7] = tested on: Felis catus; experiment: Effect of intraperitoneal infusion on systolic pressure in Anesthetized cats at a dose of 200 mg/kg at 45 min; type: functional
[8] = organism: Cavia porcellus; experiment: Chronotropic activity on left and right guinea pig artia (beats/min), at 150 min; type: functional
[9] = tested on: Felis catus; experiment: Effect of intravenous infusion on respiration frequency in Anesthetized cats at a dose of 0.30 mg/kg at 2 min; type: functional; details: dose 0.3 mg/kg
[10] = organism: Cavia porcellus; experiment: Effect on guinea pig artia (beats/min), at the a dose of 10e-9 M; type: functional
[11] = tested on: Felis catus; experiment: Effect of intraperitoneal infusion of compound on cardiac frequency in Anesthetized cats at a dose of 200 mg/kg at 105 min; type: functional, Heart
[12] = tested on: Felis catus; experiment: Effect of intraperitoneal infusion of compound on cardiac frequency in Anesthetized cats at a dose of 200 mg/kg at 45 min; type: functional, Heart
[13] = tested on: Felis catus; experiment: Effect of intravenous infusion on systolic pressure in Anesthetized cats at a dose of 0.75 mg/kg at 5 min; type: functional
[14] = tested on: Felis catus; experiment: Effect of intravenous infusion on respiration frequency in Anesthetized cats at a dose of 1.50 mg/kg at 10 min; type: functional; details: dose 1.5 mg/kg
[15] = tested on: Felis catus; experiment: Effect on respiration frequency in Anesthetized cats at a dose of 2.25 mg/kg at 15 min; type: functional
[16] = tested on: Felis catus; experiment: Effect of intraperitoneal infusion on diastolic pressure in Anesthetized cats at a dose of 200 mg/kg at 0 min; type: functional
[17] = tested on: Felis catus; experiment: Effect of intraperitoneal infusion of compound on cardiac frequency in Anesthetized cats at a dose of 200 mg/kg at 180 mins; type: functional, Heart
[18] = tested on: Felis catus; experiment: Effect of intravenous infusion on systolic pressure in Anesthetized cats at a dose of 1.50 mg/kg at 10 min; type: functional; details: dose 1.5 mg/kg
[19] = tested on: Felis catus; experiment: Effect of intraperitoneal infusion on respiration frequency in Anesthetized cats at a dose of 200 mg/kg at 15 min; type: functional
[20] = tested on: Felis catus; experiment: Effect of intraperitoneal infusion on diastolic pressure in Anesthetized cats at a dose of 200 mg/kg at 135 min; type: functional
[21] = organism: Cavia porcellus; experiment: Effect on guinea pig artia (beats/min), at the a dose of 10e-8 M; type: functional
[22] = tested on: Felis catus; experiment: Effect of intraperitoneal infusion on systolic pressure in Anesthetized cats at a dose of 200 mg/kg at 30 min; type: functional
[23] = tested on: Felis catus; experiment: Effect of intraperitoneal infusion of compound on cardiac frequency in Anesthetized cats at a dose of 200 mg/kg at 30 min; type: functional, Heart
[24] = organism: Oryctolagus cuniculus; experiment: Effect on 35 mM K+-induced contraction on rabbit aorta at a dose of 10E-7 mol/L; type: functional
[25] = tested on: Felis catus; experiment: Effect of intravenous infusion on diastolic pressure in Anesthetized cats at a dose of 0.30 mg/kg at 2 min; type: functional; details: dose 0.3 mg/kg
[26] = tested on: Felis catus; experiment: Effect of intraperitoneal infusion on respiration frequency in Anesthetized cats at a dose of 200 mg/kg at 165 min; type: functional
[27] = organism: Oryctolagus cuniculus; experiment: Effect on 35 mM K+-induced contraction on rabbit aorta at a dose of 3*10e-8 mol/L; type: functional
[28] = tested on: Felis catus; experiment: Effect of intravenous infusion on cardiac frequency in Anesthetized cats at a dose of 1.50 mg/kg at 10 min; type: functional, Heart; details: dose 1.5 mg/kg
[29] = tested on: Felis catus; experiment: Effect of intravenous infusion on diastolic pressure in Anesthetized cats at a dose of 3.0 mg/kg at 20 min; type: functional
[30] = tested on: Felis catus; experiment: Effect of intravenous infusion on diastolic pressure in Anesthetized cats at a dose of 0.75 mg/kg at 5 min; type: functional
[31] = tested on: Felis catus; experiment: Effect of intraperitoneal infusion on diastolic pressure in Anesthetized cats at a dose of 200 mg/kg at 30 min; type: functional
[32] = organism: Cavia porcellus; experiment: Effect on guinea pig artia (beats/min), at the a dose of 10e-7 M; type: functional
[33] = tested on: Felis catus; experiment: Effect of intraperitoneal infusion on diastolic pressure in Anesthetized cats at a dose of 200 mg/kg at 180 min; type: functional
[34] = tested on: Felis catus; experiment: Effect of intravenous infusion on cardiac frequency in Anesthetized cats at a dose of 0.15 mg/kg at 1 min; type: functional, Heart
[35] = tested on: Felis catus; experiment: Effect of intravenous infusion on respiration frequency in Anesthetized cats at a dose of 3 mg/kg at 20 min; type: functional
[36] = tested on: Felis catus; experiment: Effect of intraperitoneal infusion on diastolic pressure in Anesthetized cats at a dose of 200 mg/kg at 165 min; type: functional
[37] = tested on: Felis catus; experiment: Effect of intravenous infusion on respiration frequency in Anesthetized cats at a dose of 0.15 mg/kg at 1 min; type: functional
[38] = organism: Cavia porcellus; experiment: Chronotropic activity on left and right guinea pig artia (beats/min), at 45 min; type: functional
[39] = organism: Oryctolagus cuniculus; experiment: Effect on 35 mM K+-induced contraction on rabbit aorta at a dose of 10E-9 mol/L; type: functional
[40] = tested on: Felis catus; experiment: Effect of intravenous infusion on diastolic pressure in Anesthetized cats at a dose of 2.25 mg/kg at 15 min; type: functional
[41] = tested on: Felis catus; experiment: Effect of intravenous infusion on systolic pressure in Anesthetized cats at a dose of 0.15 mg/kg at 1 min; type: functional
[42] = organism: Cavia porcellus; experiment: Chronotropic activity on left and right guinea pig artia (beats/min), at 0 min; type: functional
[43] = tested on: Felis catus; experiment: Effect of intravenous infusion on cardiac frequency in Anesthetized cats at a dose of 0.30 mg/kg at 2 min; type: functional, Heart; details: dose 0.3 mg/kg
[44] = tested on: Felis catus; experiment: Effect of intraperitoneal infusion on systolic pressure in Anesthetized cats at a dose of 200 mg/kg at 165 min; type: functional
[45] = tested on: Felis catus; experiment: Effect of intraperitoneal infusion on respiration frequency in Anesthetized cats at a dose of 200 mg/kg at 135 min; type: functional
[46] = tested on: Felis catus; experiment: Effect of intraperitoneal infusion on respiration frequency in Anesthetized cats at a dose of 200 mg/kg at 150 min; type: functional
[47] = tested on: Felis catus; experiment: Effect of intraperitoneal infusion on diastolic pressure in Anesthetized cats at a dose of 200 mg/kg at 60 min; type: functional
[48] = tested on: Felis catus; experiment: Effect of intraperitoneal infusion on systolic pressure in Anesthetized cats at a dose of 200 mg/kg at 120 min; type: functional

For `CCO/C(O)=C1\C(C)=NC(C)=C(C(=O)OCCN2C(=O)c3ccccc3S2(=O)=O)C1C` (stereo not given), which Arterial pressure [1] is on record?
Its Arterial pressure is 130 mmHg.

What about the Arterial pressure [2] of the same compound?
Its Arterial pressure is 140 mmHg.

And the Beats/min [3]?
The Beats/min was 136.

What about the Control [3] of the same compound?
The Control was 99.3%.

What about the Respiratory frequency [4] of the same compound?
The Respiratory frequency was 12 r.p.m.

And the Arterial pressure [5]?
Its Arterial pressure is 165 mmHg.

What about the Cardiac frequency [6] of the same compound?
Its Cardiac frequency is 254 beats min-1.

And the Arterial pressure [7]?
The Arterial pressure was 125 mmHg.

And the Beats/min [8]?
The Beats/min was 129.

And the Control [8]?
Its Control is 94.2%.

And the Respiratory frequency [9]?
Its Respiratory frequency is 18 r.p.m.

What about the Beats/min [10] of the same compound?
The Beats/min was 193.

What about the Control [10] of the same compound?
The Control was 105.6%.

What about the Cardiac frequency [11] of the same compound?
The Cardiac frequency was 259 beats min-1.

And the Cardiac frequency [12]?
The Cardiac frequency was 245 beats min-1.

And the Arterial pressure [13]?
Its Arterial pressure is 162 mmHg.

And the Respiratory frequency [14]?
Its Respiratory frequency is 18 r.p.m.

What about the Respiratory frequency [15] of the same compound?
Its Respiratory frequency is 19 r.p.m.

And the Arterial pressure [16]?
The Arterial pressure was 85 mmHg.

What about the Cardiac frequency [17] of the same compound?
The Cardiac frequency was 276 beats min-1.

And the Arterial pressure [18]?
Its Arterial pressure is 160 mmHg.

And the Respiratory frequency [19]?
The Respiratory frequency was 14 r.p.m.

And the Arterial pressure [20]?
Its Arterial pressure is 80 mmHg.

And the Beats/min [21]?
Its Beats/min is 176.

What about the Control [21] of the same compound?
Its Control is 96.3%.

What about the Arterial pressure [22] of the same compound?
The Arterial pressure was 135 mmHg.

What about the Cardiac frequency [23] of the same compound?
The Cardiac frequency was 245 beats min-1.

What about the Inhibition [24] of the same compound?
The Inhibition was 12.6%.

And the Arterial pressure [25]?
Its Arterial pressure is 115 mmHg.

What about the Respiratory frequency [26] of the same compound?
The Respiratory frequency was 15 r.p.m.

And the Inhibition [27]?
Its Inhibition is 0%.

What about the Cardiac frequency [28] of the same compound?
The Cardiac frequency was 210 beats min-1.

And the Arterial pressure [29]?
Its Arterial pressure is 160 mmHg.

What about the Arterial pressure [30] of the same compound?
The Arterial pressure was 112 mmHg.

And the Arterial pressure [31]?
The Arterial pressure was 90 mmHg.

And the Beats/min [32]?
The Beats/min was 181.

What about the Control [32] of the same compound?
Its Control is 98.6%.

What about the Arterial pressure [33] of the same compound?
Its Arterial pressure is 80 mmHg.

What about the Cardiac frequency [34] of the same compound?
The Cardiac frequency was 190 beats min-1.

And the Respiratory frequency [35]?
Its Respiratory frequency is 18 r.p.m.

And the Arterial pressure [36]?
Its Arterial pressure is 80 mmHg.

What about the Respiratory frequency [37] of the same compound?
Its Respiratory frequency is 18 r.p.m.

What about the Beats/min [38] of the same compound?
The Beats/min was 138.

And the Control [38]?
Its Control is 100.4%.

And the Inhibition [39]?
The Inhibition was 0%.

And the Arterial pressure [40]?
Its Arterial pressure is 110 mmHg.

What about the Arterial pressure [41] of the same compound?
The Arterial pressure was 165 mmHg.

And the Beats/min [42]?
Its Beats/min is 137.

What about the Control [42] of the same compound?
Its Control is 100%.

What about the Cardiac frequency [43] of the same compound?
The Cardiac frequency was 190 beats min-1.

What about the Arterial pressure [44] of the same compound?
Its Arterial pressure is 142 mmHg.

And the Respiratory frequency [45]?
Its Respiratory frequency is 15 r.p.m.

And the Respiratory frequency [46]?
Its Respiratory frequency is 15 r.p.m.

And the Arterial pressure [47]?
Its Arterial pressure is 85 mmHg.

And the Arterial pressure [48]?
Its Arterial pressure is 145 mmHg.

— ChEMBL document CHEMBL1123971, “Synthesis, platelet aggregation inhibitory activity, and in vivo antithrombotic activity of new 1,4-dihydropyridines” (J Med Chem, 1988)
